Measurements taken from ChEMBL document CHEMBL1141500, “Thiol-based angiotensin-converting enzyme 2 inhibitors: P1' modifications for the exploration of the S1' subsite” (Bioorg Med Chem Lett, 2008).

Assays:
[1] = molecular target: T1, Angiotensin-converting enzyme 2 (Homo sapiens, UniProt Q9BYF1); test: Inhibition of ACE2
[2] = molecular target: Angiotensin-converting enzyme (Homo sapiens, UniProt P12821); test: Inhibition of human recombinant ACE by fluorescence assay; conditions: read-out: Ki app
Carboxypeptidase A1 = molecular target: T2, Carboxypeptidase A1 (Homo sapiens, UniProt P15085); test: Inhibition of human recombinant CpA by fluorescence assay; conditions: read-out: Ki app
T2 sequence (P15085 whole entry): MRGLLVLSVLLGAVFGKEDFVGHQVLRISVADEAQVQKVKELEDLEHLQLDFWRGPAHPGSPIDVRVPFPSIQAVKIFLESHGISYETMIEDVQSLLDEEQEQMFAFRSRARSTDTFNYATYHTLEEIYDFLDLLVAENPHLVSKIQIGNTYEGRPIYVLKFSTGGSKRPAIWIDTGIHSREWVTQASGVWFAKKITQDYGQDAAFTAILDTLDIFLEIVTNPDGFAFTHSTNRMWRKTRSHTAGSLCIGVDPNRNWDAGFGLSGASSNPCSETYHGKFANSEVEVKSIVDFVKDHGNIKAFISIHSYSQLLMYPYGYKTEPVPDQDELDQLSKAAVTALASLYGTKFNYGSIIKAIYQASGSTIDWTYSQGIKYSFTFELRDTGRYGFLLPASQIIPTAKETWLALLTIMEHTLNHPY

Neprilysin = Neprilysin (Homo sapiens, UniProt P08473); test: Inhibition of human recombinant NEP by fluorescence assay; conditions: read-out: Ki app
[3] = molecular target: T1, Angiotensin-converting enzyme 2; test: Inhibition of human recombinant ACE2 by fluorescence assay; conditions: read-out: Ki app
Homo sapiens [4] = organism: Homo sapiens; test: Selectivity for human recombinant ACE2 over human recombinant NEP
Homo sapiens [5] = organism: Homo sapiens; test: Selectivity for human recombinant ACE2 over human recombinant ACE
Homo sapiens [6] = organism: Homo sapiens; test: Selectivity for human recombinant ACE2 over human recombinant CpA

Chain of Neprilysin (P08473 whole entry): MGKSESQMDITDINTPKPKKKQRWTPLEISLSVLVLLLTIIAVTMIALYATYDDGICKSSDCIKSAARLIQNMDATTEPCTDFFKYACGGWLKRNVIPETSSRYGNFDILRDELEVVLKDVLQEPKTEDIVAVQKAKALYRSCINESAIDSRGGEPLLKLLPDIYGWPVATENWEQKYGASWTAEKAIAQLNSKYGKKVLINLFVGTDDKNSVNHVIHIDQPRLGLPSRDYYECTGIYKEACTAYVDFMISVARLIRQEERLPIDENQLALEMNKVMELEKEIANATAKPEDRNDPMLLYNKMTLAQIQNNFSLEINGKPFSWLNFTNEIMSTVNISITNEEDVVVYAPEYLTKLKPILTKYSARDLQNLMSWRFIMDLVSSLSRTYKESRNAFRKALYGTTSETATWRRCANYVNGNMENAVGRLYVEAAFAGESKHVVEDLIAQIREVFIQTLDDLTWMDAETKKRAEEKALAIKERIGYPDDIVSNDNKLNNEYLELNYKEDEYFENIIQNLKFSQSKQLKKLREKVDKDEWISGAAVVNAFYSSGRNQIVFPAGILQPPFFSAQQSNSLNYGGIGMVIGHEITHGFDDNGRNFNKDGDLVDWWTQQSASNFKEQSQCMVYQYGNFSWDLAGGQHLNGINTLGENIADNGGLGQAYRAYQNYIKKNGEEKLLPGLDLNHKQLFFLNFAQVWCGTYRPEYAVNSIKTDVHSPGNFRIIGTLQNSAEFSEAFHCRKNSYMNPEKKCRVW
T1 sequence (Q9BYF1 whole entry): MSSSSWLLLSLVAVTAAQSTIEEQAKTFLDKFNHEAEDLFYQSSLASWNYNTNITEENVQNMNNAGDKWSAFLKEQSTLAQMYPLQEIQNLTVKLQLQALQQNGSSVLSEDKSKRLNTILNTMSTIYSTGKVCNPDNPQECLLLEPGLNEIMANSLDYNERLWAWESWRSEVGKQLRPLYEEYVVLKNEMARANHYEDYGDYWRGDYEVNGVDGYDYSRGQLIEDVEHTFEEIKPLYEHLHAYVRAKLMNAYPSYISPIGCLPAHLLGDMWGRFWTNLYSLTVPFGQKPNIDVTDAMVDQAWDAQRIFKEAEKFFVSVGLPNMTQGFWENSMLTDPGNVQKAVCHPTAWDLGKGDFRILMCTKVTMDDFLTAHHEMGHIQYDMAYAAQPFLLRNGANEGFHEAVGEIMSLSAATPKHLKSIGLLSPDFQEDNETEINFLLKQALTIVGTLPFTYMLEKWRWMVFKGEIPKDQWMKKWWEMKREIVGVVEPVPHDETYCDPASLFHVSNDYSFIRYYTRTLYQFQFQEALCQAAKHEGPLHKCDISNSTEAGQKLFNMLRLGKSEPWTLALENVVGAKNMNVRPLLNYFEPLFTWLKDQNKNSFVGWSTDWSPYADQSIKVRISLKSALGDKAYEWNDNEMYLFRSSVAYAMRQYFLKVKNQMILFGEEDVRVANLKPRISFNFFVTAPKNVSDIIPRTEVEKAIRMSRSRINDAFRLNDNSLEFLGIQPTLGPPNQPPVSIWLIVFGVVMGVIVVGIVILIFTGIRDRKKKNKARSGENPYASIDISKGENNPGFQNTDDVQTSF
Chain of Angiotensin-converting enzyme (P12821 whole entry): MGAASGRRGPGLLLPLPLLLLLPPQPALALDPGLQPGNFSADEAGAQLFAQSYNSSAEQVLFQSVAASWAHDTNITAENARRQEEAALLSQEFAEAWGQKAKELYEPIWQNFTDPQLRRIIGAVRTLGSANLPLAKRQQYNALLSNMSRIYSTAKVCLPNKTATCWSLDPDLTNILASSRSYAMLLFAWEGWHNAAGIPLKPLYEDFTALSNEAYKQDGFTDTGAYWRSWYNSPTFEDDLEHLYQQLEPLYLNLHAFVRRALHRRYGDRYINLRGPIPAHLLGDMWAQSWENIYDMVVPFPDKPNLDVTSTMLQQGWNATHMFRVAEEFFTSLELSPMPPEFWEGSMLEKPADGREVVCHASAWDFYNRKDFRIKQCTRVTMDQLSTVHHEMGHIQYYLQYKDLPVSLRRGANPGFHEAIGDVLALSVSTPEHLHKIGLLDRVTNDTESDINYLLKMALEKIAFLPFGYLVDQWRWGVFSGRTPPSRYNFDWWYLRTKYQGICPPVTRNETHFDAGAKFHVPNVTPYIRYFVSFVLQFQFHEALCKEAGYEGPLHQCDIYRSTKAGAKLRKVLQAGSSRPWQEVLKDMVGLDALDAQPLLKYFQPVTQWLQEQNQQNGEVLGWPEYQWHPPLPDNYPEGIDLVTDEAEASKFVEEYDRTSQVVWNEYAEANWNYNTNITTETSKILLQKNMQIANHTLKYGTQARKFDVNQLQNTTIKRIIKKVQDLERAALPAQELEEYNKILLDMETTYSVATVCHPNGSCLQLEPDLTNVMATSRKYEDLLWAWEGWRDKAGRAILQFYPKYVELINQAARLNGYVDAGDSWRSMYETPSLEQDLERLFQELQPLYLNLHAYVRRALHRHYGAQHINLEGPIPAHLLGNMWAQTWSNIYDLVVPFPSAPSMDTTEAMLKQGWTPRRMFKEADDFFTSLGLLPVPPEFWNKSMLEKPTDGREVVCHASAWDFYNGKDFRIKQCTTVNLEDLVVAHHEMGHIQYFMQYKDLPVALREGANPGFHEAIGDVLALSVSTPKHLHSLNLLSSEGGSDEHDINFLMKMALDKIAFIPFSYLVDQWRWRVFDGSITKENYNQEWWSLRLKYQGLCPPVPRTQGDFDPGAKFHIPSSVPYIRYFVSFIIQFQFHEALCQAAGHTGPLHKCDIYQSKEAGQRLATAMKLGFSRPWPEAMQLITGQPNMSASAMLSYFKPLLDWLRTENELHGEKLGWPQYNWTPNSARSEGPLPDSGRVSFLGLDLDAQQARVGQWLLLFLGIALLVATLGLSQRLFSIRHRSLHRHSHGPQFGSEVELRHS

Compound | IC50 [1] | Ki [2] | Ki (Carboxypeptidase A1) | Ki (Neprilysin) | Ki [3] | Selectivity ratio (Homo sapiens [4]) | Selectivity ratio (Homo sapiens [5]) | Selectivity ratio (Homo sapiens [6])
NCCNCCN1CC1 | 57 µM | – | – | – | – | – | – | –
CC[C@@H](C)[C@H](S)C(=O)N[C@@H](Cc1ccccc1)C(=O)O | – | 570 nM | 0.53 µM | 35 nM | 1.5 nM | – | – | –
CC[C@@H](C)[C@H](S)C(=O)N[C@@H](Cc1ccccc1Oc1ccccc1)C(=O)O | – | 5000 nM | 2.3 µM | 180 nM | 0.9 nM | 200 | – | –
CC[C@@H](C)[C@H](S)C(=O)N[C@@H](Cc1ccccc1-c1ccccc1)C(=O)O | – | 20000 nM | 9.9 µM | 190 nM | 37 nM | – | – | –
CC[C@@H](C)[C@H](S)C(=O)N[C@@H](Cc1ccc(OCc2ccc(C(F)(F)F)cc2)cc1)C(=O)O | – | 2600 nM | 4.6 µM | 1500 nM | 35 nM | – | – | –
CC[C@@H](C)[C@H](S)C(=O)N[C@@H](Cc1ccc(Oc2ccccc2)cc1)C(=O)O | – | 250 nM | 8.9 µM | 10 nM | 2.2 nM | – | > 100 | –
CC[C@@H](C)[C@H](S)C(=O)N[C@@H](Cc1ccc(O)cc1)C(=O)O | – | 410 nM | 0.35 µM | 75 nM | 1.3 nM | – | – | –
CC(=O)NCC(=O)N[C@@H](CC(=O)O)C(=O)N[C@@H](Cc1ccc(O)cc1)C(=O)N[C@@H](CO)C(=O)N[C@@H](Cc1cnc[nH]1)C(=O)N[C@H]1CSSC[C@@H](C(=O)N[C@H](C(=O)N[C@@H](Cc2ccc(O)cc2)C(=O)N2CCC[C@H]2C(=O)N[C@@H](CC(=O)O)C(=O)N2CCC[C@H]2C(=O)N[C@@H](CCC(=O)O)C(=O)NCC(=O)NCC(=O)NCC(N)=O)[C@@H](C)O)NC(=O)[C@H](CCCCN)NC(=O)[C@H](Cc2c[nH]c3ccccc23)NC(=O)[C@H](Cc2c[nH]c3ccccc23)NC(=O)[C@@H]2CCCN2C(=O)[C@H](Cc2ccc(O)cc2)NC(=O)[C@H](Cc2ccc(O)cc2)NC(=O)[C@H](CCCNC(=N)N)NC(=O)[C@H](CC(C)C)NC(=O)[C@@H]2CCCN2C(=O)[C@H](CO)NC1=O | 0.01 µM | – | – | – | – | – | – | –
CC[C@@H](C)[C@H](S)C(=O)N[C@@H](Cc1ccc2ccccc2c1)C(=O)O | – | 310 nM | 7.2 µM | 46 nM | 2.4 nM | – | > 100 | > 100
CC[C@@H](C)[C@H](S)C(=O)N[C@@H](Cc1cccc(-c2ccccc2)c1)C(=O)O | – | 1000 nM | 5 µM | 19 nM | 2.2 nM | – | – | –
CC[C@@H](C)[C@H](S)C(=O)N[C@@H](Cc1ccc(OCc2ccccc2)cc1)C(=O)O | – | 570 nM | 4.6 µM | 300 nM | 2.7 nM | 110 | – | –
CC[C@@H](C)[C@H](S)C(=O)N[C@@H](Cc1ccccc1OCc1ccccc1)C(=O)O | – | 770 nM | 1.6 µM | 120 nM | 6 nM | 20 | – | –
CC[C@@H](C)[C@H](S)C(=O)N[C@@H](Cc1cccc(Oc2ccccc2)c1)C(=O)O | – | 1100 nM | 14 µM | 79 nM | 5.8 nM | – | – | –
CC[C@@H](C)[C@H](S)C(=O)N[C@@H](Cc1ccc(OCc2ccc(F)cc2F)cc1)C(=O)O | – | 950 nM | 1.9 µM | 75 nM | 2 nM | – | – | –
CC[C@@H](C)[C@H](S)C(=O)N[C@@H](Cc1ccc(OCc2ccc(F)cc2)cc1)C(=O)O | – | 4000 nM | 16 µM | 180 nM | 2.5 nM | – | – | –
CC[C@@H](C)[C@H](S)C(=O)N[C@@H](Cc1ccc(OCc2ccc(F)c(F)c2)cc1)C(=O)O | – | 1800 nM | 3.3 µM | 640 nM | 0.85 nM | – | > 750 | > 750
CC[C@@H](C)[C@H](S)C(=O)N[C@@H](Cc1cccc(OCc2ccccc2)c1)C(=O)O | – | 750 nM | 5 µM | 37 nM | 2.4 nM | 15 | – | –
CC[C@@H](C)[C@H](S)C(=O)NCC(=O)O | – | 250 nM | 35 µM | 5100 nM | 90 nM | – | – | –
CC[C@@H](C)[C@H](S)C(=O)N[C@@H](Cc1ccc(OCc2cc(C(F)(F)F)cc(C(F)(F)F)c2)cc1)C(=O)O | – | 25000 nM | 11 µM | 11000 nM | 84 nM | – | – | –
CC[C@@H](C)[C@H](S)C(=O)N[C@@H](C)C(=O)O | – | 180 nM | 11 µM | 950 nM | 14 nM | – | – | –
CC[C@@H](C)[C@H](S)C(=O)N[C@@H](Cc1cccc2ccccc12)C(=O)O | – | 1800 nM | 3.6 µM | 12 nM | 2.2 nM | – | > 100 | > 100
